Measured values reported in ChEMBL document CHEMBL4665820, “Discovery of VU6027459: A First-in-Class Selective and CNS Penetrant mGlu Positive Allosteric Modulator Tool Compound” (ACS Med Chem Lett, 2020).

How the values were obtained:
[1] = biological target: Adenosine receptor A2a (Homo sapiens) (UniProt P29274); assay: Displacement of [3H]-CGS 21680 from human recombinant adenosine A2A receptor at 10 uM after 120 mins by scintillation counting analysis relative to control
[2] = biological target: Metabotropic glutamate receptor 7 (Rattus norvegicus, UniProt P35400); assay: Positive allosteric modulation of rat mGlu7 receptor expressed in HEK293 cells co-expressing Gai5 assessed as potentiation of L-AP4-induced calcium mobilization preincubated for 140 secs and treated with EC20 L-AP4 for 125 secs and followed by subsequent addition of EC80 L-AP4 by Fluo-4-AM dye based fluorescence assay; format: functional, cell-based; conditions: read-out: EC50
Metabotropic glutamate receptor 7, sequence (P35400 whole entry): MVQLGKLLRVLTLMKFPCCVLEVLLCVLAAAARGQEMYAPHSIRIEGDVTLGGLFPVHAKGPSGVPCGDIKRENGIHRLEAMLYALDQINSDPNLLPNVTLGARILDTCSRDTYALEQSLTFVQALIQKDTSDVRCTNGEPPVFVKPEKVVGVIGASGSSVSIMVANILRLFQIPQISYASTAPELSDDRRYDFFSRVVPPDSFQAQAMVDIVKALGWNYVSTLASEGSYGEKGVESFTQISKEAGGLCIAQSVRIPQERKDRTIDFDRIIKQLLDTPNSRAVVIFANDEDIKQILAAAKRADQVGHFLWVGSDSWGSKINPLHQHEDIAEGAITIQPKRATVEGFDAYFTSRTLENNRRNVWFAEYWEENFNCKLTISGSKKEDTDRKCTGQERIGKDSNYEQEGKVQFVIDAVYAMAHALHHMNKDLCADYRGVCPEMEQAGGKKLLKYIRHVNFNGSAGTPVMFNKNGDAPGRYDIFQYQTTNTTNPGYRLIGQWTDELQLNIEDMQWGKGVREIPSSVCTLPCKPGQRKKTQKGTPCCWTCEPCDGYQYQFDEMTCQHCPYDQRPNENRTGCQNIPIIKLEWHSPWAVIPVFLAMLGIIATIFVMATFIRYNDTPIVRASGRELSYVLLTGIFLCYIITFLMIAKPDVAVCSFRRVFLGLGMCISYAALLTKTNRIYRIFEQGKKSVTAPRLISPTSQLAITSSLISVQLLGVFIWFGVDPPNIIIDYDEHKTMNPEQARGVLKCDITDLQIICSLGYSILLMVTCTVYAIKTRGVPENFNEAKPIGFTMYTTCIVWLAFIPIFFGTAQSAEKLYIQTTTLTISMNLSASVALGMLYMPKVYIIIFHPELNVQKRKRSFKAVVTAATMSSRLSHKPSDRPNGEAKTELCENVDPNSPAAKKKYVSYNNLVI

[3] = biological target: Metabotropic glutamate receptor 7 (Rattus norvegicus) (UniProt P35400); assay: Positive allosteric modulation of rat mGlu7 expressed in HEK293 cells co- expressing GIRK assessed as potentiation of L-AP4-induced thallium flux incubated for 140 sec by FluoZin2-AM dye based fluorescence analysis relative to maximal induction of L-AP4; format: cell-based; conditions: filed as positive allosteric modulator
Metabotropic glutamate receptor 7 (Rattus norvegicus), sequence (P35400 whole entry): as above

[4] = biological target: Alpha-1A adrenergic receptor (Homo sapiens) (UniProt P35348); assay: Displacement of [3H]-Prazosin from human recombinant adrenergic alpha 1A receptor at 10 uM incubated for 60 mins by scintillation counting analysis relative to control
[5] = biological target: Alpha-1D adrenergic receptor (Homo sapiens) (UniProt P25100); assay: Displacement of [3H]-Prazosin from human recombinant adrenergic alpha 1D receptor at 10 uM incubated for 60 mins by scintillation counting analysis relative to control
[6] = biological target: B1 bradykinin receptor (Homo sapiens) (UniProt P46663); assay: Displacement of [3H]desArg10-KD from human recombinant Bradykinin B1 receptor at 10 uM incubated for 120 mins by scintillation counting analysis relative to control
Rattus norvegicus [7] = organism: Rattus norvegicus; assay: Displacement of [3H]-Nitrendipine from L-type calcium channel dihydropyridine binding site in rat brain at 10 uM incubated for 90 mins by scintillation counting analysis relative to control; format: tissue-based
Rattus norvegicus [8] = organism: Rattus norvegicus; assay: Displacement of [125I]-Omega -conotoxin GIVA from N-type calcium channel in rat brain membrane at 10 uM incubated for 30 mins by scintillation counting analysis relative to control; format: cell membranes
[9] = biological target: Cannabinoid receptor 1 (Homo sapiens) (UniProt P21554); assay: Displacement of [3H]-SR141716A from human recombinant full length Cannabinoid CB1 receptor at 10 uM incubated for 60 mins by scintillation counting analysis relative to control
[10] = biological target: D(3) dopamine receptor (Homo sapiens) (UniProt P35462); assay: Displacement of [3H]-methyl-spiperone from human recombinant Dopamine D3 receptor at 10 uM incubated for 60 mins by scintillation counting analysis relative to control
CHO-K1 = assay: Inhibition of human recombinant full length Dopamine D4.2 receptor expressed in CHOK1 cells at 10 uM incubated for 30 mins by GTPgammaS assay relative to control; format: cell-based
[11] = biological target: Epidermal growth factor receptor (Homo sapiens) (UniProt P00533); assay: Displacement of [125I]-EGF from human EGF receptor at 10 uM incubated for 60 mins by scintillation counting analysis relative to control
Epidermal growth factor receptor (Homo sapiens), sequence (P00533 whole entry): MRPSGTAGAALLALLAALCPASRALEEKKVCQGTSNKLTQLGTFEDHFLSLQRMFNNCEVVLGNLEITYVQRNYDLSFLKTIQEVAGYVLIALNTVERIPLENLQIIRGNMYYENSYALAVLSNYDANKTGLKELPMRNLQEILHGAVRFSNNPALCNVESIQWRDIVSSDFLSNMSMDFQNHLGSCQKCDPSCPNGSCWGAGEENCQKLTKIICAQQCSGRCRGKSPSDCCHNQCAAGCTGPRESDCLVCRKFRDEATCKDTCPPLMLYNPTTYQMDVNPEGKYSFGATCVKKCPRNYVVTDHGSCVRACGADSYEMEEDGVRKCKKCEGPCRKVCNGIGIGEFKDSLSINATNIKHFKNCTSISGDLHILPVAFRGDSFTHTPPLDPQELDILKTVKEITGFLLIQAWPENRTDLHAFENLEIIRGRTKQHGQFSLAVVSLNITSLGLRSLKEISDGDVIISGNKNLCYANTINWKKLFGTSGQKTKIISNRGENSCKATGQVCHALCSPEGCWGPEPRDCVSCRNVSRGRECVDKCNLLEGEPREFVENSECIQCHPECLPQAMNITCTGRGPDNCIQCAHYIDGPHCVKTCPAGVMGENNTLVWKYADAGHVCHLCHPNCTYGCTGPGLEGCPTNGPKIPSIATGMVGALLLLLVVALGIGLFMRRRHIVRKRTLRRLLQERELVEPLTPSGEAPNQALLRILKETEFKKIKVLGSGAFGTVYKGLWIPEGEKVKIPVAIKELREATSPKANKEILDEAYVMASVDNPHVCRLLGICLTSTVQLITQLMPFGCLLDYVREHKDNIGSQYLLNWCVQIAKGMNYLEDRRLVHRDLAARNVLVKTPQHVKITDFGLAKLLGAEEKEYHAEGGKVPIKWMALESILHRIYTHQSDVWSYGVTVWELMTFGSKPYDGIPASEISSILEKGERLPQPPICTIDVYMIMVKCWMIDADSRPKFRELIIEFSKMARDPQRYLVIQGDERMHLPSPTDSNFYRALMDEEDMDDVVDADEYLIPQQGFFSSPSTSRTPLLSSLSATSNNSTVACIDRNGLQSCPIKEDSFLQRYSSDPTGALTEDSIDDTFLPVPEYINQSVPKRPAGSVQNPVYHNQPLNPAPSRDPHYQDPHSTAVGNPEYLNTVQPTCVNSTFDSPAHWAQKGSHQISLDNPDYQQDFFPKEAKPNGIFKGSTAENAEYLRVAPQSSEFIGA

[12] = biological target: Estrogen receptor (Homo sapiens) (UniProt P03372); assay: Displacement of [3H]-estradiol from human recombinant Estrogen ERalpha receptor at 10 uM incubated for 120 mins by scintillation counting analysis relative to control
Rattus norvegicus [13] = organism: Rattus norvegicus; assay: Displacement of [3H]-Muscimol from GABAA channel muscimol binding site in rat brain at 10 uM incubated for 10 mins by scintillation counting analysis relative to control; format: tissue-based
[14] = biological target: Glucocorticoid receptor (Homo sapiens) (UniProt P04150); assay: Displacement of [3H]-Dexamethasone from human Glucocorticoid receptors at 10 uM incubated for 360 mins by scintillation counting analysis relative to control
[15] = biological target: Histamine H1 receptor (Homo sapiens) (UniProt P35367); assay: Displacement of [3H]pyrilamine from human recombinant histamine H1 receptor at 10 uM after 60 mins by scintillation counting analysis relative to control
Rattus norvegicus [16] = organism: Rattus norvegicus; assay: Displacement of [3H]-idazoxan from rat imidazoline I2 receptor at 10 uM incubated for 30 mins by scintillation counting analysis relative to control
[17] = biological target: Melatonin receptor type 1A (Homo sapiens) (UniProt P48039); assay: Displacement of [125I][…] from human recombinant MT1 receptor at 10 uM after 240 mins by scintillation counting analysis relative to control
[18] = biological target: Muscarinic acetylcholine receptor M2 (Homo sapiens) (UniProt P08172); assay: Displacement of [3H]AF-DX 384 from human recombinant M2 receptor at 10 uM after 60 mins by scintillation counting analysis relative to control
[19] = biological target: Acetylcholine receptor subunit alpha (Homo sapiens) (UniProt P02708); assay: Displacement of [125I] alpha-Bungarotoxin from human nicotinic acetylcholine alpha 1 receptor at 10 uM incubated for 120 mins by radioligand binding assay relative to control
[20] = biological target: Kappa-type opioid receptor (Homo sapiens) (UniProt P41145); assay: Displacement of [3H]U69593 from human kappa receptor at 10 uM after 60 mins by scintillation counting analysis relative to control
[21] = biological target: Platelet-activating factor receptor (Homo sapiens) (UniProt P25105); assay: Displacement of [3H]-C18-PAF from human PAF receptor at 10 uM incubated for 180 mins by scintillation counting analysis relative to control
Rattus norvegicus [22] = organism: Rattus norvegicus; assay: Displacement of [3H]-Rolipram from phosphodiesterases PDE4 rolipram binding site in rat at 10 uM incubated for 60 mins by radioligand binding assay relative to control
[23] = biological target: 5-hydroxytryptamine receptor 1A (Homo sapiens) (UniProt P08908); assay: Displacement of [3H]8-OH-DPAT from recombinant human 5-HT1A receptor at 10 uM after 60 mins by scintillation counting analysis relative to control
5-hydroxytryptamine receptor 1A (Homo sapiens), sequence (P08908 whole entry): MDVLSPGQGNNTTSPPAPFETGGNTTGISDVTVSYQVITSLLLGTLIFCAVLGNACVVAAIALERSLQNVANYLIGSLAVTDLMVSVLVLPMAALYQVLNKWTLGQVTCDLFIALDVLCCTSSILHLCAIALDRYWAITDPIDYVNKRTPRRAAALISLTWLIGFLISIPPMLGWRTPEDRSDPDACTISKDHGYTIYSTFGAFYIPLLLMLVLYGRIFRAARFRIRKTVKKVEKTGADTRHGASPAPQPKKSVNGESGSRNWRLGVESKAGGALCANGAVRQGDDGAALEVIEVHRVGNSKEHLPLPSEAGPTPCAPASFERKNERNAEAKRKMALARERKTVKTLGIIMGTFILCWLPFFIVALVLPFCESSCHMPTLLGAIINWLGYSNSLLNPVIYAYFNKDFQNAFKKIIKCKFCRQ

[24] = biological target: 5-hydroxytryptamine receptor 2B (Homo sapiens) (UniProt P41595); assay: Displacement of [125I]+/-DOI from human recombinant 5-HT2B receptor at 10 uM after 60 mins by scintillation counting analysis relative to control
5-hydroxytryptamine receptor 2B (Homo sapiens), sequence (P41595 whole entry): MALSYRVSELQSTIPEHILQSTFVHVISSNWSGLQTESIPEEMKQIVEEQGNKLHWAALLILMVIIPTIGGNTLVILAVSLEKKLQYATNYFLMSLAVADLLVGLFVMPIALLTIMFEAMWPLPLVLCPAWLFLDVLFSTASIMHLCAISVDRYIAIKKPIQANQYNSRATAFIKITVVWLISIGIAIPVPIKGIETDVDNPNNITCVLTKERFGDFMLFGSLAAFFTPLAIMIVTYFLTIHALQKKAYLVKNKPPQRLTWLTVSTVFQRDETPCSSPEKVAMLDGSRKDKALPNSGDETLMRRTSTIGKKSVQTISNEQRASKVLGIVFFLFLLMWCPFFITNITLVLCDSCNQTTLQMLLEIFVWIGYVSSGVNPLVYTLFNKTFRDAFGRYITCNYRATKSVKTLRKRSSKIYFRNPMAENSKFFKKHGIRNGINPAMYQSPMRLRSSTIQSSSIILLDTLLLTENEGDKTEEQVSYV

[25] = biological target: Sigma non-opioid intracellular receptor 1 (Homo sapiens, UniProt Q99720); assay: Displacement of [3H]-Pentazocine from human recombinant sigma 1 receptor at 10 uM incubated for 120 mins by scintillation counting analysis relative to control
Sigma non-opioid intracellular receptor 1, sequence (Q99720 whole entry): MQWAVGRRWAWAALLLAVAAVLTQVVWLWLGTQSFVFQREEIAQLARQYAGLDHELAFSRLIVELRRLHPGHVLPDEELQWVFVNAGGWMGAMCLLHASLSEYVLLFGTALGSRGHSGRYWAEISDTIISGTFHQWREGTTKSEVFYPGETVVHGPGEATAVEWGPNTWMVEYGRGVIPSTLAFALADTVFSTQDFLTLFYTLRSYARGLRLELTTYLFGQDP

Rattus norvegicus [26] = organism: Rattus norvegicus; assay: Displacement of [3H]-Batrachotoxinin from rat sodium channel site 2 at 10 uM incubated for 60 mins by scintillation counting analysis relative to control
[27] = biological target: Substance-P receptor (Homo sapiens) (UniProt P25103); assay: Displacement of [125I]-Substance P LYS3 from human recombinant tachykinin NK1 receptor at 10 uM incubated for 30 mins by scintillation counting analysis relative to control
Substance-P receptor (Homo sapiens), sequence (P25103 whole entry): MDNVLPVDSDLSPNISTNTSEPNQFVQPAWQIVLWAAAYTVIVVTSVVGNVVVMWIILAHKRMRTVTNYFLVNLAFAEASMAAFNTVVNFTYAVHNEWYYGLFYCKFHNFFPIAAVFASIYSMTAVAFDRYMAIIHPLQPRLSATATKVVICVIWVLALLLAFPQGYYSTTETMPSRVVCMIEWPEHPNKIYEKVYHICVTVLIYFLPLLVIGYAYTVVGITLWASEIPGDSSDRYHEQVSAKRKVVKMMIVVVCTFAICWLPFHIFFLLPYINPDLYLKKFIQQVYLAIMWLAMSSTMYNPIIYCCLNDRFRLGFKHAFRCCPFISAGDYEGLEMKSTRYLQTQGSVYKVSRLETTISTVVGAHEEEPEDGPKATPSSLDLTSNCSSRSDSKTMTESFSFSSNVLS

Rattus norvegicus [28] = organism: Rattus norvegicus; assay: Displacement of [125I]-Triiodothyronine from thyroid hormone receptors in rat at 10 uM incubated for 180 mins by scintillation counting analysis relative to control
[29] = biological target: Sodium-dependent noradrenaline transporter (Homo sapiens) (UniProt P23975); assay: Displacement of […] from recombinant human norepinephrine transporter at 10 uM after 120 mins by scintillation counting analysis relative to control
Sodium-dependent noradrenaline transporter (Homo sapiens), sequence (P23975 whole entry): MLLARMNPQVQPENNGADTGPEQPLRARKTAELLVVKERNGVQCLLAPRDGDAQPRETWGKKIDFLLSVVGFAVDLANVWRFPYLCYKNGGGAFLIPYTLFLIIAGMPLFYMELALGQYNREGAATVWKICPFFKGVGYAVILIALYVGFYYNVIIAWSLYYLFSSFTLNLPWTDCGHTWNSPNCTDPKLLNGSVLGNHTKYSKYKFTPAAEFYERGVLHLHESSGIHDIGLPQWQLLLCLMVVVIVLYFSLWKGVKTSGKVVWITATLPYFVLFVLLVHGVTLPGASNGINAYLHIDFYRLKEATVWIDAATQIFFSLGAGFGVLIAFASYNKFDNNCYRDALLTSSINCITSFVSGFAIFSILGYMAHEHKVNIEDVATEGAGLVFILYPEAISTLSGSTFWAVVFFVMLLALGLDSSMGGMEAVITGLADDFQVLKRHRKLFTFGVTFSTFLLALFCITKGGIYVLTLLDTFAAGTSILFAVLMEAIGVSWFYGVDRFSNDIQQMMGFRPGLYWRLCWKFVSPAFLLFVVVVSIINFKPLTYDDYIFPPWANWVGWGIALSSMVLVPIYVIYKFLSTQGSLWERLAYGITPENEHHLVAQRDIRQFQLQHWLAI

Rattus norvegicus [30] = organism: Rattus norvegicus; assay: Displacement of [3H]-GABA in GABA transporter in rat brain membrane at 10 uM incubated for 30 mins by scintillation counting analysis elative to control; format: cell membranes

Adenosine receptor A2a (Homo sapiens), sequence (P29274 whole entry): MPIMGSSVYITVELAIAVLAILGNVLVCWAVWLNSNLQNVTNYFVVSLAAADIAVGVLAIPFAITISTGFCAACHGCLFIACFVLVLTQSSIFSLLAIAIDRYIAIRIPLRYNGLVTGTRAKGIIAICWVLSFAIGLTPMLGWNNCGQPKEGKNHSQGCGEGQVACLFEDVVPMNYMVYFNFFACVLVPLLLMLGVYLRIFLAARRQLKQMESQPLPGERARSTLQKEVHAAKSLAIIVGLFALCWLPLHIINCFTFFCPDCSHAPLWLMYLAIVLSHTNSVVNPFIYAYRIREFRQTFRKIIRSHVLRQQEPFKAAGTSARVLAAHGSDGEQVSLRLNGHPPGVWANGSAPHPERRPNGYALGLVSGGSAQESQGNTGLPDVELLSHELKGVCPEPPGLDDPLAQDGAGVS

For `COc1cc(F)cc2c(N3CCN(c4ccccc4F)CC3)c(C#N)cnc12`, the inhibition ([1]; tested as the 2H-labelled form) was < 50%, the EC50 [2] was 1.4 µM and the Activity ([3]; tested as the 2H-labelled form) was 62.8%. For the same compound, the inhibition ([4]; tested as the 2H-labelled form) was < 50%, the inhibition ([5]; tested as the 2H-labelled form) was < 50% and the inhibition ([6]; tested as the 2H-labelled form) was < 50%. For the same compound, the inhibition (Rattus norvegicus [7]; tested as the 2H-labelled form) was < 50%, the inhibition (Rattus norvegicus [8]; tested as the 2H-labelled form) was < 50% and the inhibition ([9]; tested as the 2H-labelled form) was < 50%. The inhibition ([10]; tested as the 2H-labelled form) was < 50%, the inhibition (CHO-K1; tested as the 2H-labelled form) was < 50% and the inhibition ([11]; tested as the 2H-labelled form) was < 50%. For the same compound, the inhibition ([12]; tested as the 2H-labelled form) was < 50%, the inhibition (Rattus norvegicus [13]; tested as the 2H-labelled form) was < 50% and the inhibition ([14]; tested as the 2H-labelled form) was < 50%. The inhibition ([15]; tested as the 2H-labelled form) was < 50%, the inhibition (Rattus norvegicus [16]; tested as the 2H-labelled form) was < 50% and the inhibition ([17]; tested as the 2H-labelled form) was < 50%. The inhibition ([18]; tested as the 2H-labelled form) was < 50%, the inhibition ([19]; tested as the 2H-labelled form) was < 50% and the inhibition ([20]; tested as the 2H-labelled form) was < 50%. For the same compound, the inhibition ([21]; tested as the 2H-labelled form) was < 50%, the inhibition (Rattus norvegicus [22]; tested as the 2H-labelled form) was < 50% and the inhibition ([23]; tested as the 2H-labelled form) was < 50%. For the same compound, the inhibition ([24]; tested as the 2H-labelled form) was < 50%, the inhibition ([25]; tested as the 2H-labelled form) was 77% and the inhibition (Rattus norvegicus [26]; tested as the 2H-labelled form) was < 50%. For the same compound, the inhibition ([27]; tested as the 2H-labelled form) was < 50%, the inhibition (Rattus norvegicus [28]; tested as the 2H-labelled form) was < 50% and the inhibition ([29]; tested as the 2H-labelled form) was < 50%. The inhibition (Rattus norvegicus [30]; tested as the 2H-labelled form) was < 50%.
`COc1cccc2c(N3CCN(c4ccccc4F)CC3)c(C#N)cnc12` was tested, and the inhibition [1] was < 50%, the EC50 [2] was 1.1 µM and the Activity [3] was 51.3%. For the same compound, the inhibition [4] was < 50%, the inhibition [5] was < 50% and the inhibition [6] was < 50%. The inhibition (Rattus norvegicus [7]) was < 50%, the inhibition (Rattus norvegicus [8]) was < 50% and the inhibition [9] was < 50%. The inhibition [10] was < 50%, the inhibition (CHO-K1) was < 50% and the inhibition [11] was < 50%. For the same compound, the inhibition [12] was < 50%, the inhibition (Rattus norvegicus [13]) was < 50% and the inhibition [14] was < 50%. For the same compound, the inhibition [15] was < 50%, the inhibition (Rattus norvegicus [16]) was < 50% and the inhibition [17] was < 50%. The inhibition [18] was < 50%, the inhibition [19] was < 50% and the inhibition [20] was < 50%. For the same compound, the inhibition [21] was < 50%, the inhibition (Rattus norvegicus [22]) was < 50% and the inhibition [23] was < 50%. For the same compound, the inhibition [24] was < 50%, the inhibition [25] was < 50% and the inhibition (Rattus norvegicus [26]) was < 50%. The inhibition [27] was < 50%, the inhibition (Rattus norvegicus [28]) was < 50% and the inhibition [29] was < 50%. The inhibition (Rattus norvegicus [30]) was < 50%.
